Measurements as given in ChEMBL document CHEMBL1201862, “PubChem BioAssay data set” (2004).
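Briefly, cells in 96-well plates were exposed to five compound concentrations for 48 h, and endpoints were estimated by linear interpolation. Here, GI50 denotes the concentration required for 50% inhibition of growth.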 The source made the active and inactive calls. No stated cut-off is given here; in the data, active = GI50 up to about 1.1 µM and inactive = higher.

Key:
Experiment in all cases: NCI anticancer screen, dose series, 48 h
[1] = tested on: ACHN
[2] = tested on: HCT-116
[3] = tested on: HCT-15
[4] = tested on: HOP-62
[5] = tested on: K562
[6] = tested on: KM12
[7] = tested on: M14
[8] = tested on: MDA-MB-231
[9] = tested on: MDA-MB-435
[10] = tested on: NCI-H226
[11] = tested on: NCI-H23
[12] = tested on: NCI-H460
[13] = tested on: RXF 393
[14] = tested on: SF-539
[15] = tested on: SNB-19
[16] = tested on: SW-620
[17] = tested on: TK-10
[18] = tested on: UO-31
[19] = tested on: CCRF-CEM
[20] = tested on: OVCAR-3

Row | Structure (SMILES) | GI50 [1] | GI50 [2] | GI50 [3] | GI50 [4] | GI50 [5] | GI50 [6] | GI50 [7] | GI50 [8] | GI50 [9] | GI50 [10] | GI50 [11] | GI50 [12] | GI50 [13] | GI50 [14] | GI50 [15] | GI50 [16] | GI50 [17] | GI50 [18] | GI50 [19] | GI50 [20]
1 | Nc1nc(O)c2nc3c(nc2n1)C(=O)N(c1ccc(C(=O)O)cc1)C3 | > 100 µM (inactive) | > 100 µM (inactive) | > 100 µM | 29.4 µM (inactive) | > 100 µM (inactive) | > 100 µM (inactive) | > 100 µM (inactive) | > 100 µM (inactive) | > 100 µM (inactive) | > 100 µM (inactive) | > 100 µM (inactive) | > 100 µM (inactive) | > 100 µM (inactive) | > 100 µM (inactive) | > 100 µM (inactive) | > 100 µM (inactive) | > 100 µM (inactive) | > 100 µM (inactive) | – | –
2 | CCOP(=O)(OCC)C(C(=O)OC)C(=O)C(=O)Nc1cccc(O)c1 (stereo not drawn) | > 100 µM (inactive) | > 100 µM (inactive) | > 100 µM | > 100 µM (inactive) | – | > 100 µM (inactive) | > 100 µM (inactive) | > 100 µM (inactive) | > 100 µM (inactive) | > 100 µM (inactive) | > 100 µM (inactive) | > 100 µM (inactive) | > 100 µM (inactive) | > 100 µM (inactive) | > 100 µM (inactive) | > 100 µM (inactive) | > 100 µM (inactive) | > 100 µM (inactive) | > 100 µM (inactive) | > 100 µM (inactive)
3 | O=c1c2sc3nc(NCCN4CCCCC4)ncc3c2ncn1-c1ccccc1 | 42 µM (inactive) | 33.1 µM (inactive) | 40.4 µM | 42.1 µM (inactive) | 47.1 µM (inactive) | > 100 µM (inactive) | 19.6 µM (inactive) | > 100 µM (inactive) | 72.6 µM (inactive) | 93.8 µM (inactive) | > 100 µM (inactive) | 55.6 µM (inactive) | 20.6 µM (inactive) | – | 67.9 µM (inactive) | 46.7 µM (inactive) | 48.3 µM (inactive) | 19.7 µM (inactive) | 44.7 µM (inactive) | > 100 µM (inactive)
4 | O=C(N/N=C/c1ccccc1O)c1ccccc1Nc1ccccc1C(=O)N/N=C/c1ccccc1O | 0.394 µM (active) | 0.198 µM (active) | 0.329 µM | 0.432 µM (active) | 1 µM (active) | 1.38 µM (inactive) | 0.953 µM (active) | 99.3 µM (inactive) | 2.41 µM (inactive) | 0.403 µM (active) | 1.84 µM (inactive) | 0.371 µM (active) | – | 2.19 µM (inactive) | 3.41 µM (inactive) | – | 5.87 µM (inactive) | 0.411 µM (active) | 0.931 µM (active) | 0.0546 µM (active)
5 | NCCCNCCCNCCCN | > 100 µM (inactive) | > 100 µM (inactive) | > 100 µM | > 100 µM (inactive) | 25.2 µM (inactive) | > 100 µM (inactive) | > 100 µM (inactive) | > 100 µM (inactive) | > 100 µM (inactive) | > 100 µM (inactive) | > 100 µM (inactive) | – | > 100 µM (inactive) | – | > 100 µM (inactive) | > 100 µM (inactive) | > 100 µM (inactive) | > 100 µM (inactive) | – | > 100 µM (inactive)
6 | COc1cc(C2SCC(=O)N2c2ccc(-c3ccc(-n4c(-c5ccccc5)nc5ccccc5c4=O)cc3)cc2)cc(OC)c1OC (stereo not drawn) | 16.6 µM (inactive) | 13.1 µM (inactive) | 28.6 µM | 23.3 µM (inactive) | 13.6 µM (inactive) | 12.6 µM (inactive) | 20.5 µM (inactive) | 15.6 µM (inactive) | 21.8 µM (inactive) | > 100 µM (inactive) | 73.1 µM (inactive) | 27.5 µM (inactive) | – | 30.3 µM (inactive) | 26.5 µM (inactive) | 17.3 µM (inactive) | 63.1 µM (inactive) | 25.2 µM (inactive) | 10.6 µM (inactive) | 18.5 µM (inactive)
7 | Cc1cc(C(C)(C)C)c(OCCCN2CCOCC2)c(C(C)(C)C)c1 | 17.4 µM (inactive) | 16.7 µM (inactive) | 18 µM | 19.5 µM (inactive) | 16.6 µM (inactive) | 17.5 µM (inactive) | 16.8 µM (inactive) | 17.4 µM (inactive) | 19.4 µM (inactive) | – | 17.5 µM (inactive) | 30.9 µM (inactive) | 16 µM (inactive) | 18.7 µM (inactive) | 17.3 µM (inactive) | 16.9 µM (inactive) | 19.3 µM (inactive) | 18.3 µM (inactive) | 16.6 µM (inactive) | 19.2 µM (inactive)
8 | CCN(CC)CCN(/C(=N/c1ccccc1)N1CCOCC1)c1ccccc1 | – | 9.89 µM (inactive) | > 100 µM | 74.6 µM (inactive) | > 100 µM (inactive) | > 100 µM (inactive) | > 100 µM (inactive) | > 100 µM (inactive) | 28.8 µM (inactive) | > 100 µM (inactive) | 70 µM (inactive) | > 100 µM (inactive) | > 100 µM (inactive) | > 100 µM (inactive) | > 100 µM (inactive) | > 100 µM (inactive) | > 100 µM (inactive) | > 100 µM (inactive) | > 100 µM (inactive) | > 100 µM (inactive)
9 | COc1cc2ccc1OCc1cccc(n1)COc1ccc(cc1OC)/C=N\CCNCC/N=C\2 | > 100 µM (inactive) | 45.4 µM (inactive) | > 100 µM | > 100 µM (inactive) | > 100 µM (inactive) | – | > 100 µM (inactive) | 35.2 µM (inactive) | > 100 µM (inactive) | > 100 µM (inactive) | > 100 µM (inactive) | > 100 µM (inactive) | > 100 µM (inactive) | > 100 µM (inactive) | > 100 µM (inactive) | > 100 µM (inactive) | > 100 µM (inactive) | > 100 µM (inactive) | – | > 100 µM (inactive)
10 | Cc1cc2c(s1)C(=O)c1sccc1C2=O | 1.05 µM (active) | 0.998 µM (active) | 1.19 µM | – | 1.91 µM (inactive) | 1.63 µM (inactive) | 0.176 µM (active) | 1.07 µM (active) | 0.177 µM (active) | 1.76 µM (inactive) | 0.171 µM (active) | 1.72 µM (inactive) | 1.17 µM (inactive) | 0.248 µM (active) | 1.66 µM (inactive) | 0.275 µM (active) | 2.85 µM (inactive) | 0.805 µM (active) | – | 0.83 µM (active)
11 | O=c1[nH]c2ccccc2c2nc3ccccc3n12 | 7.03 µM (inactive) | 19.1 µM (inactive) | > 100 µM | 38.1 µM (inactive) | > 100 µM (inactive) | 22.4 µM (inactive) | > 100 µM (inactive) | 16.9 µM (inactive) | > 100 µM (inactive) | – | 42.5 µM (inactive) | 2.54 µM (inactive) | 28.7 µM (inactive) | 24.4 µM (inactive) | > 100 µM (inactive) | 61.2 µM (inactive) | 6.75 µM (inactive) | 8.49 µM (inactive) | > 100 µM (inactive) | 54.5 µM (inactive)
